The source of these data is PubChem BioAssay AID624131 (National Center for Advancing Translational Sciences (NCATS), 2012).

This series has as its system mouse liver microsomes, LC-MS/MS half-life. Put plainly: qHTS Assay to Find Inhibitors of T. brucei phosphofructokinase: Mouse Liver Microsome Stability. Conditions: at 1 µM; active compounds read high. (Quantitative high-throughput screening tests each substance at several concentrations.)

The half-life is how long it takes for the measured level to halve. `O=C(Cc1ccc(Cl)c(Cl)c1)Nc1ccc(S(=O)(=O)Nc2ccon2)cc1`: the half-life was 231 min.
